What was measured:
Z-138 [1] = experiment: Induction of apoptosis in human Z138 cells assessed as viable cells at 10.0 nM incubated for 168 hrs by Annexin V-FITC/PI staining based flow cytometric analysis (reference value: 94.4 %); assay type: functional; conditions: read-out: Activity
[2] = Oral bioavailability in Sprague-Dawley rat at 10 mg/kg by LC-MS/MS analysis; assay type: ADME, organism-based; conditions: in vivo
[3] = Tmax in Sprague-Dawley rat at 10 mg/kg, po by LC-MS/MS analysis; assay type: ADME, organism-based; conditions: Sprague-Dawley, in vivo, read-out: Tmax
Z-138 [4] = experiment: Induction of apoptosis in human Z138 cells assessed as early apoptotic cells at 10.0 nM incubated for 168 hrs by Annexin V-FITC/PI staining based flow cytometric analysis (reference value: 1.68 %); assay type: functional
[5] = Hematological toxicity in human CD34-positive hematopoietic stem/progenitor cell supplemented with myeloid lineage assessed as reduction in cell viability incubated for 14 days by luminometric analysis; assay type: cell-based
Z-138 [6] = experiment: Induction of apoptosis in human Z138 cells assessed as viable cells at 50.0 nM incubated for 168 hrs by Annexin V-FITC/PI staining based flow cytometric analysis (reference value: 94.4 %); assay type: functional; conditions: read-out: Activity
Z-138 [7] = experiment: Induction of apoptosis in human Z138 cells assessed as necrotic cells at 50.0 nM incubated for 168 hrs by Annexin V-FITC/PI staining based flow cytometric analysis (reference value: 3.54 %); assay type: functional
[8] = Half-life in Sprague-Dawley rat at 10 mg/kg, po by LC-MS/MS analysis; assay type: ADME, organism-based; conditions: Sprague-Dawley, in vivo
[9] = Hematological toxicity in human CD34-positive hematopoietic stem/progenitor cell supplemented with erythroid lineage assessed as reduction in cell viability incubated for 14 days by luminometric analysis; assay type: cell-based
[10] = MRT (0 to t) in Sprague-Dawley rat at 2 mg/kg, iv by LC-MS/MS analysis; assay type: ADME, organism-based; conditions: in vivo
[11] = biological target: Voltage-gated inwardly rectifying potassium channel KCNH2 (Homo sapiens, UniProt Q12809); experiment: Inhibition of human ERG; assay type: toxicity
[12] = biological target: Protein arginine N-methyltransferase 1 (Homo sapiens, UniProt Q99873); experiment: Inhibition of PRMT1 (unknown origin)
Z-138 [13] = experiment: Induction of apoptosis in human Z138 cells assessed as late apoptotic cells at 0.4 nM incubated for 168 hrs by Annexin V-FITC/PI staining based flow cytometric analysis (reference value: 0.37 %); assay type: functional
Z-138 [14] = experiment: Induction of apoptosis in human Z138 cells assessed as necrotic cells at 0.4 nM incubated for 168 hrs by Annexin V-FITC/PI staining based flow cytometric analysis (reference value: 3.54 %); assay type: functional
Z-138 [15] = experiment: Induction of apoptosis in human Z138 cells assessed as late apoptotic cells at 50.0 nM incubated for 168 hrs by Annexin V-FITC/PI staining based flow cytometric analysis (reference value: 0.37 %); assay type: functional
[16] = Clearance in Sprague-Dawley rat at 2 mg/kg, iv by LC-MS/MS analysis; assay type: ADME, organism-based; conditions: in vivo
Z-138 [17] = experiment: Induction of apoptosis in human Z138 cells assessed as late apoptotic cells at 2.0 nM incubated for 168 hrs by Annexin V-FITC/PI staining based flow cytometric analysis (reference value: 0.37 %); assay type: functional
[18] = biological target: T1, Protein arginine N-methyltransferase 7 (Homo sapiens, UniProt Q9NVM4); experiment: Inhibition of PRMT7 (unknown origin)
T1 sequence (Q9NVM4 whole entry): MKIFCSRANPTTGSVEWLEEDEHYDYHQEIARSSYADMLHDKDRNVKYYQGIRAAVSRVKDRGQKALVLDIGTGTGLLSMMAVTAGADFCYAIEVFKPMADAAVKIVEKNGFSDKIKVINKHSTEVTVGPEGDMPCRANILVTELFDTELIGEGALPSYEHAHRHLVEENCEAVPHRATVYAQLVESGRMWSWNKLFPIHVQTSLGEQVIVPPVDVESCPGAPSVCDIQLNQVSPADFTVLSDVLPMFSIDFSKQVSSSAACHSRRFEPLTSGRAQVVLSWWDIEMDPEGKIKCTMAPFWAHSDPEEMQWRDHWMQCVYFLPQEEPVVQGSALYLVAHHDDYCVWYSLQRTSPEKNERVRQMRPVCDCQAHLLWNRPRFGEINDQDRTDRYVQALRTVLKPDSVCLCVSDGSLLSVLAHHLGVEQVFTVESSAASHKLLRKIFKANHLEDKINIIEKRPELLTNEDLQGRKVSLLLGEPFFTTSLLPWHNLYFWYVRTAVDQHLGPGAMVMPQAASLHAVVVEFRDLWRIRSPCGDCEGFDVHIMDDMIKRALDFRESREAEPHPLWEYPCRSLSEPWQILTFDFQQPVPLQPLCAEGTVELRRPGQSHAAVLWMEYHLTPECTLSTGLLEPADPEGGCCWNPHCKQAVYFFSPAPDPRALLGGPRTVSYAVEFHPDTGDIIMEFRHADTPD

[19] = Cmax in Sprague-Dawley rat at 10 mg/kg, po by LC-MS/MS analysis; assay type: ADME, organism-based; conditions: Sprague-Dawley, in vivo, read-out: Cmax
[20] = biological target: Protein arginine N-methyltransferase 8 (Homo sapiens, UniProt Q9NR22); experiment: Inhibition of PRMT8 (unknown origin)
[21] = biological target: Protein arginine N-methyltransferase 6 (Homo sapiens, UniProt Q96LA8); experiment: Inhibition of PRMT6 (unknown origin)
[22] = Cmax in Sprague-Dawley rat at 2 mg/kg, iv by LC-MS/MS analysis; assay type: ADME, organism-based; conditions: in vivo
[23] = Volume of distribution in Sprague-Dawley rat at 2 mg/kg, iv by LC-MS/MS analysis; assay type: ADME, organism-based; conditions: in vivo
Z-138 [24] = experiment: Cell cycle arrest in human Z138 cells assessed as accumulation of cells at G0/G1 phase incubated for 168 hrs by RNase A/PI staining based flow cytometric analysis; assay type: functional; conditions: dose 0.4-50 nM
Z-138 [25] = experiment: Induction of apoptosis in human Z138 cells assessed as viable cells at 2.0 nM incubated for 168 hrs by Annexin V-FITC/PI staining based flow cytometric analysis (reference value: 94.4 %); assay type: functional; conditions: read-out: Activity
[26] = Hematological toxicity in human CD34-positive hematopoietic stem/progenitor cell supplemented with megakaryocytic lineage assessed as reduction in cell viability incubated for 14 days by luminometric analysis; assay type: cell-based
Z-138 [27] = experiment: Induction of apoptosis in human Z138 cells assessed as early apoptotic cells at 0.4 nM incubated for 168 hrs by Annexin V-FITC/PI staining based flow cytometric analysis (reference value: 1.68 %); assay type: functional
[28] = Half-life in Sprague-Dawley rat at 2 mg/kg, iv by LC-MS/MS analysis; assay type: ADME, organism-based; conditions: in vivo
Z-138 [29] = experiment: Induction of apoptosis in human Z138 cells assessed as early apoptotic cells at 2.0 nM incubated for 168 hrs by Annexin V-FITC/PI staining based flow cytometric analysis (reference value: 1.68 %); assay type: functional
[30] = MRT (0 to t) in Sprague-Dawley rat at 10 mg/kg, po by LC-MS/MS analysis; assay type: ADME, organism-based; conditions: in vivo

Voltage-gated inwardly rectifying potassium channel KCNH2, sequence (Q12809 whole entry): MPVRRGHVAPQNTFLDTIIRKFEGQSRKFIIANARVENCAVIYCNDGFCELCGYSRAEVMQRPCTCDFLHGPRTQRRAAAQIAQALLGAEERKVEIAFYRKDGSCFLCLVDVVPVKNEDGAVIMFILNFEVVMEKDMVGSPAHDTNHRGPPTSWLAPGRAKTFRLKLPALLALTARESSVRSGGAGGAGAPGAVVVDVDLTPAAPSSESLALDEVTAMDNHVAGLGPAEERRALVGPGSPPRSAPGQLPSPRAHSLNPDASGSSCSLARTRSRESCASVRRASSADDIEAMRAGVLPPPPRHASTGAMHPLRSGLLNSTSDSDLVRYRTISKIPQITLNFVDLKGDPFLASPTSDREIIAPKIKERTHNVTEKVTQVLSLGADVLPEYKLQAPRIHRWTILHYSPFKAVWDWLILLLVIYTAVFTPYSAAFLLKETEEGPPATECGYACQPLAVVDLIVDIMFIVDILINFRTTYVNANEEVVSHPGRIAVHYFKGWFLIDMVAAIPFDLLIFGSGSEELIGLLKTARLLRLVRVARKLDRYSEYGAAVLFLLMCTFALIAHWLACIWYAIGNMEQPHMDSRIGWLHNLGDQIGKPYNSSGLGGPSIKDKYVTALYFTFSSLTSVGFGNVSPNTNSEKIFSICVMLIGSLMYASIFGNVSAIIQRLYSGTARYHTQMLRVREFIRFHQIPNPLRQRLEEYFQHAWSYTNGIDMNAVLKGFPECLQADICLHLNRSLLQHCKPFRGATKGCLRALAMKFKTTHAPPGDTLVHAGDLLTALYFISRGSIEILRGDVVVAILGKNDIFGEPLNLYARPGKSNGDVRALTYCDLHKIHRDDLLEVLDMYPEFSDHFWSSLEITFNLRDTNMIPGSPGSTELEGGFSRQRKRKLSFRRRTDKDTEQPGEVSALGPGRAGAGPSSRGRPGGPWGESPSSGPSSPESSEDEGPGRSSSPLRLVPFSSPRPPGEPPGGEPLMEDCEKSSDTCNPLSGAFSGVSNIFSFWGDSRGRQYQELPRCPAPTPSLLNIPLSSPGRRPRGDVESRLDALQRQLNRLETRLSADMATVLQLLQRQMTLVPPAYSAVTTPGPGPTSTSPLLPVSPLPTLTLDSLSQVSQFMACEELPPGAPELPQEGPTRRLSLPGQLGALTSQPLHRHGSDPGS
Protein arginine N-methyltransferase 8, sequence (Q9NR22 whole entry): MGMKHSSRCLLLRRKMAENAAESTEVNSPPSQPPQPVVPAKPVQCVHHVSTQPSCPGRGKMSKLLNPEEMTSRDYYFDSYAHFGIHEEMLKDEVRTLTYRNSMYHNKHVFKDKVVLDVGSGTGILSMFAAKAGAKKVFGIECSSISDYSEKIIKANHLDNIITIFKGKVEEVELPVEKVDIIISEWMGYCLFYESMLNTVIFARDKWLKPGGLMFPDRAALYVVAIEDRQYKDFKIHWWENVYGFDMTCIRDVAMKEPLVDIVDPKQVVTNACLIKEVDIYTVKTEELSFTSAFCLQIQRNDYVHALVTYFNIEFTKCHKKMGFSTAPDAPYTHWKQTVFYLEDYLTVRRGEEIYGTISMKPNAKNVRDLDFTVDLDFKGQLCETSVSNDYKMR
Protein arginine N-methyltransferase 1, sequence (Q99873 whole entry): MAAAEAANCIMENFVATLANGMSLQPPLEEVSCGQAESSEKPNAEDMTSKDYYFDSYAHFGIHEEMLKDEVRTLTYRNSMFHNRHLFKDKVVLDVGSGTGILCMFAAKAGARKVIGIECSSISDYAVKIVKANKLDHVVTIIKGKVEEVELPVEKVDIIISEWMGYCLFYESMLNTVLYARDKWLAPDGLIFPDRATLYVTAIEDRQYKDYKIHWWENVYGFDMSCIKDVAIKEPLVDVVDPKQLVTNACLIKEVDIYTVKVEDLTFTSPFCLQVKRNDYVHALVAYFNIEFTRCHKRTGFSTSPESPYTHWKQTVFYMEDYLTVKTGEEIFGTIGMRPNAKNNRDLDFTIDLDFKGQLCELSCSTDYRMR
Protein arginine N-methyltransferase 6, sequence (Q96LA8 whole entry): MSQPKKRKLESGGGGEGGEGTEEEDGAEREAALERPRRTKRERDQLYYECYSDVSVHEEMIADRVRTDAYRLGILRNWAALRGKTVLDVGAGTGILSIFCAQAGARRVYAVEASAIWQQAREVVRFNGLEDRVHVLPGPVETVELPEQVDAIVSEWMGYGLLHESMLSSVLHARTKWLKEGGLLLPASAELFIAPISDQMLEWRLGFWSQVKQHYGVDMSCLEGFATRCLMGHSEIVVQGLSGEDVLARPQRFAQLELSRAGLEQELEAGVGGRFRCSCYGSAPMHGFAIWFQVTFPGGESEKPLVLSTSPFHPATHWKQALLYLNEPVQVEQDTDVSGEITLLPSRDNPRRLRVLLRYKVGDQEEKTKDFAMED

Row | Compound | viability at 0.01 µM (Z-138 [1]) [%] | bioavailability [2] [%] | Tmax [3] [min] | Activity (Z-138 [4]) [%] | IC50 at 14 days [5] [nM] | viability at 0.05 µM (Z-138 [6]) [%] | Activity (Z-138 [7]) [%] | half-life [8] [min] | IC50 at 14 days [9] [nM] | MRT last [10] [min] | IC50 [11] [nM] | IC50 [12] [nM] | Activity (Z-138 [13]) [%] | Activity (Z-138 [14]) [%] | Activity (Z-138 [15]) [%] | clearance [16] [mL/min/kg] | Activity (Z-138 [17]) [%] | IC50 [18] [nM] | Cmax [19] [ng/mL] | IC50 [20] [nM] | also measured
1 | CC(=O)N1CC2(CC(Nc3cc4c(cn3)C3(CC3)CN(C[C@H](O)CN3CCc5ccccc5C3)C4=O)C2)C1 | 9.21 | 26.7 | 6 | 54.5 | 511 | 7.61 | 2.87 | 132 | 216 | 30 | > 15000 | > 10000 | 0.44 | 2.41 | 11.4 | 41.7 | 9.25 | > 10000 | 894 | > 10000 | IC50 [21]: > 10000 nM; Cmax [22]: 1370 ng/mL; Vd [23]: 1.4 L/kg; Activity (Z-138 [24]): Dose-dependent-effect; viability at 0.002 µM (Z-138 [25]): 62.1%; IC50 at 14 days [26]: 106 nM; Activity (Z-138 [27]): 1.89%; half-life [28]: 24 min; Activity (Z-138 [29]): 22%; MRT last [30]: 102 min
2 | CC(=O)N1CCC(Nc2cc(C(=O)NC[C@H](O)CN3CCc4ccccc4C3)ncn2)CC1 [PEMRAMETOSTAT] | 86 | 13.5 | 78 | 7.12 | 222 | 53.4 | 5.13 | 36 | 43 | 24 | > 15000 | > 10000 | 0.33 | 2.52 | 7.38 | 56.7 | 0.31 | > 10000 | 355 | > 10000 | IC50 [21]: > 10000 nM; Cmax [22]: 1830 ng/mL; Vd [23]: 1.4 L/kg; Activity (Z-138 [24]): Dose-dependent-effect; viability at 0.002 µM (Z-138 [25]): 95.1%; IC50 at 14 days [26]: 55 nM; Activity (Z-138 [27]): 1.53%; half-life [28]: 18 min; Activity (Z-138 [29]): 1.97%; MRT last [30]: 66 min

Source: ChEMBL document CHEMBL6087464, “Design, Synthesis, and Biological Evaluation of 3,4-Dihydroisoquinolin-1(2H)-one Derivatives as Protein Arginine Methyltransferase 5 Inhibitors for the Treatment of Non-Hodgkin's Lymphoma” (J Med Chem, 2025)
